Assay results: patent publication US6562595B2, “Dominant selectable marker for gene transformation and disruption in yeasts” (McGill University, priority 2000, dated 2003)

Legend:
[1] = test system: C. albicans strain SC5314; test: Halo assay (zones of inhibition on confluent plates); assay type: cell-based, Candida albicans
Experimental: (§1) Confluent plates of either S. cerevisiae diploid strain SEY6210 (left panel) or C. albicans strain SC5314 (right panel) were spotted with 5 μl of destomycin (DSM), blasticidin (BSN), nourseothricin (NST), geneticin (G418), zeocin (ZEO), and puromycin (PUR) using concentrations of 10 mg/ml, 1 mg/ml, 0.5 mg/ml, 0.25 mg/ml, 0.125 mg/ml, and 0.06 mg/ml (top to bottom). Zones of inhibition were examined after overnight growth; clear halos indicate antifungal activity;
(§2) To explore the possibility of developing a dominant selectable marker for C. albicans, geneticin, the aminoglycoside used in dominant selection studies in S. cerevisiae was initially examined for antifungal activity in C. albicans (FIG. 1). […] When a number of alternative commercially available antibiotics including zeocin, destomycin, nourseothricin, blasticidin, and puromycin were tested for antifungal activity, the present inventors discovered that C. albicans was sensitive to nourseothricin at a concentration of about 200 μg/ml. […] C. albicans was also found to be sensitive to blasticidin. […] (Webster et al., 1983, Gene 26:243-252).

[2] = test system: S. cerevisiae strain maintaining the geneticin resistance gene KanR; test: Nourseothricin sensitivity of geneticin-resistant (KanR) strain; assay type: cell-based, Saccharomyces cerevisiae; settings: S. cerevisiae strain with KanR
Description: The present inventors also compared the sensitivity of NST to geneticin in S. cerevisiae.

[3] = test system: C. albicans CAI4 maintaining pRC18 vector and parent strain SC5314; test: Growth on nourseothricin-supplemented plates; assay type: cell-based, Candida albicans; settings: 400 μg/ml; irrespective of carbon source (1% Casamino acid or YEP 2% glucose)
Experimental: ASTHMA, PSMP, and vector alone (lacking either SAT expression module) plasmids were transformed into CAI4 and directly selected on YPD-drug supplemented plates (400 μg/ml) prior to being restreaked onto a YPD plate containing 400 μg/ml nourseothricin. A) Six independent ASTHMA transformants, as well as the negative controls CAI4, containing pRC18, and the parent strain, SC5314 are shown after two days growth at 30° C. on YPD plates containing 400 μg/ml NST. B) Four independent PSMP transformants, as well as the negative controls, CAI4 maintaining pRC18, and SC5314, grown on YPD (left plate), and either derepressing conditions (1% Casamino acid+300 μg/ml NST, center plate), or repressing conditions (YPD+300 μg/ml NST, right plate) for PCK1 promoter-dependent expression of SAT. Plates were incubated two days at 30° C.; and
The composition of a YPD medium for culturing yeast contains 1% yeast extract, 2% bactopeptone and 2% glucose. Agar was added in an amount of 2% to the medium in the case of a plate form. Transformant were selected on Ura+ protophy and subsequently streaked onto nourseothricin-supplemented plates containing either 1% Casamino acid (derepressing conditions) or YEP containing 2% glucose (repressing conditions) as alternative carbon sources. […]

[4] = test system: S. cerevisiae diploid strain SEY6210; test: Halo assay (zones of inhibition on confluent plates); assay type: cell-based, Saccharomyces cerevisiae; settings: at concentration dramatically below that at which geneticin acts
Experimental: as §1, §2

| Compound | antifungal (fungicidal) activity by halo assay ([1]; C. albicans SC5314, 5 μl spots, 10 to 0.06 mg/ml, overnight growth) | cross-resistance conferred by KanR [2] | concentration at which C. albicans is sensitive ([1]; C. albicans) | effect of medium on antifungal effectiveness ([1]; rich, high-salt YPD plates versus minimal YNB plates) | growth of strains lacking SAT in the presence of the drug [3] | antifungal activity by halo assay [4] |
| --- | --- | --- | --- | --- | --- | --- |
| CN(CC[C@H](N)CC(=O)N[C@H]1C=C[C@H](n2ccc(N)nc2=O)O[C@@H]1C(=O)O)C(=N)N [blasticidin] | sensitive | – | – | – | – | – |
| nourseothricin | – | failed to confer resistance | about 200 μg/ml | dramatically more effective on rich media | failed to grow | potent antifungal activity |
